Experimental data reported in publication PMC6361973, “The NOP-1 peptide derived from the central regulator of ethylene signaling EIN2 delays floral senescence in cut flowers” (Scientific Reports, 2019).

What was measured:
[1] = molecular target: Dianthus caryophyllus ethylene receptor DcETR1 (Dianthus caryophyllus); assay: MST; NOP-1 unlabelled, titrated from 100 µM to 3 nM in 100 mM potassium phosphate buffer, 300 mM NaCl, 0.015% FosCholine-16, to 50 nM Alexa488-labelled DcETR1; Monolith NT.115, 50% MST power; triplicates
cut roses (Rosa hybrida) = assay: Senescence / vase life of cut roses; assay type: in vivo; conditions: 1 mM silver nitrate or 0.5 mM NOP-1 in vase water; untreated controls ended vase life on day 9; six flowers per treatment
From the text: To clarify whether NOP-1 also has the potential to serve as an inhibitor of senescence in cut flowers, we applied the peptide on cut carnations (Dianthus caryophyllus) and analyzed the effect on floral senescence in this model ethylene response system[9],[13],[17],[30]. In analogy to treatment with the chemical senescence inhibitor STS containing silver ions as active ingredient which target plant ethylene receptors[31] the peptide was directly supplied to the vase water. Senescence was monitored visually throughout the experiment and quantified by changes observed in petal size and/or color (Fig. 1A,B). […]
Figure 2 Effect of small molecule inhibitors of ethylene signaling on flower senescence of cut roses. […] (B) Quantitative analysis of color change in petals after treatment with silver salt, NOP-1 peptide or buffer-only. […]
Cut flowers of carnations (Dianthus caryophyllus) and rose (Rosa hybrida), graded for marketable quality, were obtained from a local flower producer. […] Progression of senescence was recorded photographically for a period of 15 days. […] Changes in petal size and color were quantified using ImageJ (32 bit v1.51t.). Relative discoloration of petals was quantified by drawing multiple lines across each flower (petals only) and calculating the average values for red (R), green (G) and blue (B). […]

[2] = system: cut carnations (Dianthus caryophyllus); assay: Senescence / vase life of cut carnations; assay type: in vivo
From the text: To clarify whether NOP-1 also has the potential to serve as an inhibitor of senescence in cut flowers, we applied the peptide on cut carnations (Dianthus caryophyllus) and analyzed the effect on floral senescence in this model ethylene response system[9],[13],[17],[30]. In analogy to treatment with the chemical senescence inhibitor STS containing silver ions as active ingredient which target plant ethylene receptors[31] the peptide was directly supplied to the vase water. Senescence was monitored visually throughout the experiment and quantified by changes observed in petal size and/or color (Fig. 1A,B). […] To further substantiate the effect of the peptide biological on floral senescence observed with the carnation model system, we used roses as another species of highly ethylene sensitive ornamental plants. […] The untreated controls completely ended their vase life on day 9 due to these morphological changes.
Figure 1 Effect of small molecule inhibitors of ethylene signaling on flower senescence of cut carnations. (A) Visual images of carnation cut flowers treated with senescence inhibitor silver nitrate or peptide NOP-1. Representative photos of carnation petals treated with 1 mM silver nitrate or 0.5 mM NOP-1 on DAT 0, 3, 6, 9, 12 and 15. […] (B) Quantitative analysis of flower size (left) and petal color change (right) of carnation flowers after treatment with silver salt, NOP-1 peptide or buffer-only. […]
Cut flowers of carnations (Dianthus caryophyllus) and rose (Rosa hybrida), graded for marketable quality, were obtained from a local flower producer. […] Progression of senescence was recorded photographically for a period of 15 days. […] Changes in petal size and color were quantified using ImageJ (32 bit v1.51t.). Relative discoloration of petals was quantified by drawing multiple lines across each flower (petals only) and calculating the average values for red (R), green (G) and blue (B). […] Relative size of flowers was quantified using a macro that specifically recognizes the flower (petals + sepals) but not the flower stem with flower size in pixel² as the output. […]

flower senescence = conditions: cited from earlier work; for prevention of the effects of exogenous ethylene on flower senescence: during transport and storage
ethylene biosynthesis = conditions: cited from earlier work
From the text: Consequently, a number of commercial products based o ...

[3] = system: carnation ethylene receptor DcETR1; assay: Microscale thermophoresis binding to carnation ethylene receptor DcETR1; design: species or system Dianthus caryophyllus; conditions: MST; denatured using 2% (w/v) SDS and 40 mM DTT in the assay buffer; triplicates
From the text: To elucidate the mode of action of NOP-1 on flower senescence and to determine whether the peptide biological works by the same molecular mechanism as determined for NOP-1 controlled ripening delay, we initiated interaction studies of the carnation ethylene receptor DcETR1, the central regulator of the ethylene signaling cascade EIN2 and the NOP-1 peptide. To this end, DcETR1 was cloned in E. coli, expressed and purified according to protocols established in our lab[32] for ethylene receptors from Arabidopsis thaliana, Physcomitrella patens, tomato and apple (Supplementary Fig. S1). […] To determine binding affinity and dissociation constants of the purified recombinant proteins and the NOP-1 peptide we used microscale thermophoresis. […] Consequently, targeting this interaction by small-molecule modulators has the potential to shut down ethylene signaling and related plant responses. Therefore, we tested binding of the ripening delaying peptide NOP-1 identified in previous studies to target the ETR1-EIN2 complex with our purified carnation receptor DcETR1. […] The precise interaction site of NOP-1 at the Arabidopsis ETR1 receptor was recently resolved in our lab by molecular and computational studies. […]

[4] = molecular target: Dianthus caryophyllus ethylene receptor DcETR1 (Dianthus caryophyllus); assay: MST; AtEIN2^479-1294 unlabelled, titrated from 1457.5 nM to 0.7 nM in 50 mM potassium phosphate (pH 7.8), 300 mM NaCl, 0.015% FosCholine-16, to 50 nM Alexa488-labelled DcETR1; Monolith NT.115, 60% MST power; triplicates
[5] = literature, reference not given

Chain of Dianthus caryophyllus ethylene receptor DcETR1 (Dianthus caryophyllus) (Q9M7M1 other isoform, or with tags, fused parts or gaps): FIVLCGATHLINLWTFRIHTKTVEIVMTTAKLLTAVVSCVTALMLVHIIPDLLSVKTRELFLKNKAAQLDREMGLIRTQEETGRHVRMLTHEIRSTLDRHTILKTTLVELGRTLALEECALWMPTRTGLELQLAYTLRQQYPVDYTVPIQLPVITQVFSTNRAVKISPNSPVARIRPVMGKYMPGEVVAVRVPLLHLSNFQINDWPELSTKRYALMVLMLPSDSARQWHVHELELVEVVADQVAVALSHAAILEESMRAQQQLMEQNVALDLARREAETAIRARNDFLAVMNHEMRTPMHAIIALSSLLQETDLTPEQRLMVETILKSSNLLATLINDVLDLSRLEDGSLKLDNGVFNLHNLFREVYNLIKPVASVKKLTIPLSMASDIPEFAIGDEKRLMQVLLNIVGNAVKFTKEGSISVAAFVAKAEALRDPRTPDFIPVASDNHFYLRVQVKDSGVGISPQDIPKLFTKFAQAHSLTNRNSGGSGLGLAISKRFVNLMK

Molecule: NOP-1 peptide
- Kd [1]: 3490 nM

Molecule: O=[N+]([O-])[O-].[Ag+] [silver salt, silver nitrate]
- prolongation of vase life relative to buffer controls, cut roses (cut roses (Rosa hybrida)): 6 to 8 days
- efficacy compared with the other treatment, cut carnations (in words) ([2]; 0.5 mM NOP-1 vs 1 mM silver salt (AgNO3), entire trial period): noticeably more efficient in extending the vase life of cut carnations than the peptide biological
- signs of petal senescence after 15 days, cut carnations ([2]; 1 mM silver salt (AgNO3) in vase water, 50 mM Tris/Acetic acid pH 8, 15 days, six flowers): almost no signs of senescence after 15 days
- delay of petal senescence in cut carnations (in words) ([2]; 1 mM silver salt (AgNO3) in vase water, 50 mM Tris/Acetic acid pH 8, six flowers, vs buffer controls senescent after 6 days): delays the appearance of these morphological manifestations by several days

Molecule: NCCO/C=C/[C@H](N)C(=O)O [AVG, amino-ethoxyvinyl glycine]
- prevention of the effects of exogenous ethylene on flower senescence (flower senescence; [5]): ineffective
- blocking of ethylene production that accompanies senescence (ethylene biosynthesis): effective in blocking ethylene production

Molecule: NOCC(=O)O [AOA, amino-oxyacetic acid]
- prevention of the effects of exogenous ethylene on flower senescence (flower senescence; [5]): ineffective
- blocking of ethylene production that accompanies senescence (ethylene biosynthesis): effective in blocking ethylene production

Molecule: CC1=CC1 [1-MCP, 1-methylcyclopropene]
- inhibition of ethylene action at 0 °C (flower senescence; 0 °C): almost no inhibition
- inhibition of ethylene action at 20 °C (flower senescence; 20 °C): complete inhibition
- delay of flower senescence on daily application (flower senescence; applied on a daily basis, gaseous): significantly delayed flower senescence
- effect of repetitive treatments on vase life and floral senescence of cut flowers (flower senescence; repetitive treatments with the gaseous inhibitor): marked increase in vase life and efficiently blocked floral senescence of cut flower
- duration of senescence control compared with silver ions (flower senescence; single treatment, literature, reference not given): does not control senescence for as long as silver ions
- efficiency as ethylene action inhibitor (flower senescence; very small concentrations): highly efficient at very small concentrations

B1: AtEIN2^479-1294 (domain or fragment)
chain: NALSYPSVQEEEIERTETRRNEDESIVRLESRVKDQLDTTSVTSSVYDLPENILMTDQEIRSSPPEERELDVKYSTSQVSSLKEDSDVKEQSVLQSTVVNEVSDKDLIVETKMAKIEPMSPVEKIVSMENNSKFIEKDVEGVSWETEEATKAAPTSNFTVGSDGPPSFRSLSGEGGSGTGSLSRLQGLGRAARRHLSAILDEFWGHLYDFHGQLVAEARAKKLDQLFGTDQKSASSMKADSFGKDISSGYCMSPTAKGMDSQMTSSLYDSLKQQRTPGSIDSLYGLQRGSSPSPLVNRMQMLGAYGNTTNNNNAYELSERRYSSLRAPSSSEGWEHQQPATVHGYQMKSYVDNLAKERLEALQSRGEIPTSRSMALGTLSYTQQLALALKQKSQNGLTPGPAPGFENFAGSRSISRQSERSYYGVPSSGNTDTVGAAVANEKKYSSMPDISGLSMSARNMHLPNNKSGYWDPSSGGGGYGASYGRLSNESSLYSNLGSRVGVPSTYDDISQSRGGYRDAYSLPQSATTGTGSLWSRQPFEQFGVAERNGAVGEELRNRSNPINIDNNASSNVDAEAKLLQSFRHCILKLIKLEGSEWLFGQSDGVDEELIDRVAAREKFIYEAEAREINQVGHMGEPLISSVPNCGDGCVWRADLIVSFGVWCIHRVLDLSLMESRPELWGKYTYVLNRLQGVIDPAFSKLRTPMTPCFCLQIPASHQRASPTSANGMLPPAAKPAKGKCTTAVTLLDLIKDVEMAISCRKGRTGTAAGDVAFPKGKENLASVLKRYKRRLSNKPVGMNQDGPGSRKNVTAYGSLG
- interaction with chemically denatured DcETR1 (negative control) [3]: no interaction
- Kd [4]: 136 nM
